Series [1] is described as follows: Plasma pharmacokinetics of BIA 10-2474 and metabolites. Format: in vivo, human.
For series [2] the following is noted: cited from earlier work.
In another series the target is T1, FAAH (Homo sapiens, UniProt O00519).
T1 sequence (O00519 1-579): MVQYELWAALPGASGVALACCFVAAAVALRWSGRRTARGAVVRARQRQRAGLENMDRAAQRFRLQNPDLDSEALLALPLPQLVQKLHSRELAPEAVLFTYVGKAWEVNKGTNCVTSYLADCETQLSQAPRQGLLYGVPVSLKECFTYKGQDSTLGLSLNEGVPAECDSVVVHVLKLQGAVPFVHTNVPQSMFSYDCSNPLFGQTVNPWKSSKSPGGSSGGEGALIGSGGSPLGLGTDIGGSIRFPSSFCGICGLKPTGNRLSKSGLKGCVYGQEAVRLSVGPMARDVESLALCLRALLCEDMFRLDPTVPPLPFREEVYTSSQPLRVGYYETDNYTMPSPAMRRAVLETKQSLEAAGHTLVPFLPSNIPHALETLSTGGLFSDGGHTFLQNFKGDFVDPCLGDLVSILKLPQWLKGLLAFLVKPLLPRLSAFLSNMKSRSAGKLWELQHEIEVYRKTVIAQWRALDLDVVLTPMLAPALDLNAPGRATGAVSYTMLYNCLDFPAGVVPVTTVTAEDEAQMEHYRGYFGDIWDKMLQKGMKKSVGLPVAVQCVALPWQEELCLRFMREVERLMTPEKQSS
The conditions noted are these: cited from earlier work.

Setting [3] is: 20 mg BIA 10-2474 once daily, Day 10.
Where [4] appears, read: after single dose 40 mg BIA 10-2474.
Where [5] appears, read: after single dose 100 mg BIA 10-2474.
Setting [6] is: repeated dose levels below 20 mg for 10 days.
[7] abbreviates: 20 mg BIA 10-2474 once daily, Day 1.

Broadly, the half-life is the time needed for the level to fall by half in the phase considered.

Turning to `CN(C(=O)n1cnc(-c2cccnc2)c1)C1CCCCC1` [BIA 10-2445], in series [1] (setting [3]), the “AUC0–t of metabolite” value was 105 (64.7) ng⋅hour/mL, the Cmax of metabolite was 8.27 (3.42) ng/mL and the tmax of metabolite was 4.0 (4.0–12.0) hour. In series [1] (setting [4]), the AUC0-t of metabolite is reported as 51.3 (71.4) ng hour/mL, the Cmax of metabolite is reported as 4.66 (44.7) ng/mL and the tmax of metabolite is reported as 12.0 (3.0–24.0) hour. In addition, in series [1] (setting [5]), the AUC0-t of metabolite is 303 (68.3) ng hour/mL, the Cmax of metabolite was 11.4 (27.1) ng/mL and the tmax of metabolite is recorded as 12.0 (3.0–24.0) hour. Further, the “plasma abundance of metabolite” value in series [1] (setting [6]) is recorded as “undetectable”. Further, the “plasma abundance of metabolite” value in series [1] (single dose levels below 40 mg) is on record as “undetectable”.
As for `O=C(Nc1cnccc1Cl)N1CCN(Cc2ccc3c(c2)OC(F)(F)O3)CC1` [JNJ-42165279], the half-life in series [2] was 8 to 14 h. In addition, at FAAH, the “duration of FAAH inhibition” value is greater than 24 h and the “tested dose as multiple of the dose required for complete FAAH inhibition” value is given as “at least 10 times”.
On to `CN(C(=O)n1cnc(-c2ccc[n+]([O-])c2)c1)[C@H]1CC[C@H](O)CC1` [BIA 10-2639, N-(trans-4-hydroxycyclohexyl)-N-methyl-4-(1-oxidopyridin-3-yl)l-1H-imidazole-1-carboxamide], for which, in series [1] (setting [7]), the “AUC0–t of metabolite” value is 21.8 (6.8) ng⋅hour/mL, the “AUC0–∞ of metabolite” value was 26.6 (8.5) ng⋅hour/mL, the Cmax of metabolite is 4.1 (0.5) ng/mL and the t1/2 of metabolite was 9.94 (1.79) h. Besides, in series [1] (setting [7]), the tmax of metabolite is listed as 1.0 (1.0–2.0) hour. Besides, in series [1] (setting [3]), the “AUC0–t of metabolite” value was 47.3 (20.6) ng⋅hour/mL, the Cmax of metabolite was 5.8 (1.7) ng/mL and the tmax of metabolite is 1.0 (1.0–2.0) hour. Further, in series [1] (setting [4]), the AUC0-t of metabolite is on record as 59.2 (30.6) ng hour/mL, the Cmax of metabolite is given as 8.09 (30.7) ng/mL, the t1/2 of metabolite was 9.78 (67.1) hour and the tmax of metabolite is given as 2.0 (1.0–3.0) hour. In series [1] (setting [5]), the AUC0-t of metabolite is 206 (40.7) ng hour/mL, the “AUC0-∞ of metabolite” value is on record as 271 (35.6) ng hour/mL, the Cmax of metabolite is reported as 19.6 (29.1) ng/mL and the t1/2 of metabolite is recorded as 9.20 (15.2) hour. Moreover, the tmax of metabolite in series [1] (setting [5]) was 2.0 (1.0–3.0) hour. Also, in series [1] (setting [6]), the “plasma abundance of metabolite” value is on record as “undetectable”. The “plasma abundance of metabolite” value in series [1] (single dose levels below 40 mg) is “undetectable”.
With `O=C(NC1CCCCC1)n1cnc(-c2ccc[n+]([O-])c2)c1` [BIA 10-2583], the “plasma abundance of metabolite” value in series [1] (setting [6]) and in series [1] (single dose levels below 40 mg) was “undetectable” each time.
With `O=C(Nc1cccnn1)N1CCC(=Cc2cccc(Oc3ccc(C(F)(F)F)cn3)c2)CC1` [PF-04457845], the “tested dose as multiple of the dose required for complete FAAH inhibition” value on FAAH is given as 133 times. Besides, the FAAH inhibition entry on FAAH (for 6 days or more) is “more than 90%”.
With `CN(C(=O)n1cnc(-c2cccnc2)c1)[C@H]1CC[C@H](O)CC1` [BIA 10-2631, N-(trans-4-hydroxycyclohexyl)-N-methyl-4-pyridin-3-yl-1H-imidazole-1-carboxamide], in series [1] (setting [3]), the “AUC0–t of metabolite” value is recorded as 203 (197) ng⋅hour/mL, the Cmax of metabolite is 7.41 (3.9) ng/mL and the tmax of metabolite is given as 4.0 (2.0–24.0) hour. Further, in series [1] (setting [5]), the AUC0-t of metabolite is 359 (36.3) ng hour/mL, the Cmax of metabolite is listed as 7.1 (30.9) ng/mL and the tmax of metabolite is given as 18.0 (2.0–24.0) hour. In addition, the “plasma abundance of metabolite” value in series [1] (setting [6]) was “undetectable”. In addition, the “plasma abundance of metabolite” value in series [1] (single dose levels below 40 mg) is reported as “undetectable”.

The values above are taken from publication PMC9292215 (Clinical Pharmacology and Therapeutics, 2021).
